Assay results from patent US20030055077A1, “Method and compositions for the treatment of allergic conditions using pgd2 receptor antagonists” (priority 2002, published 2003).

System: ovalbumin-sensitized guinea pigs
Assay: Guinea pig allergic rhinitis model: intranasal pressure after nasal ovalbumin challenge
Type: in vivo
Conditions: single administration, 60 minutes prior to ovalbumin 1% challenge, AUC 0-30 min
Experimental: Male Hartley guinea pigs (250-500 g) purchased from Charles River (St-Constant, Qc, Canada) were used. They were housed in a temperature and humidity controlled environment, in groups of four or five with food and water available ad libitum. Experimental procedures were approved by the Animal Care Committee at Merck Frosst Centre for Therapeutic Research, in accordance with the guidelines of the Canadian Council on Animal Care.
Sensitization: The animals were injected intrapeRitoneally with 0.5 ml of an ovalbumin solution (100 μg/ml) containing 100 mg/ml aluminum hydroxide in 0.9% saline. […]
Following the surgical preparation, gallamine (2 mg/kg, i.v.) was administered to suppress spontaneous breathing. […] The changes in the intranasal pressure were monitored through a pressure transducer (Validyne DP-45, membrane 6-26, Validyne Corp., Northridge, Calif.) connected to a side arm of the nasal cannula. Values were recorded every 5 seconds using a data acquisition system (Modular Instruments, Malvern, Pa.). […] The changes in intranasal pressure were recorded for 30 minutes following the nasal challenge, using the peak response.
The effects of test compounds were evaluated on the increased intranasal pressure following a nasal challenge with an aerosol of ovalbumin 1% for 3 minutes. […]

Row | Structure (SMILES) | effect on the increase in intranasal pressure produced by aerosol of ovalbumin (1 mg/kg i.p.) | effect on the increase in intranasal pressure produced by aerosol of ovalbumin (5 mg/kg i.p.)
1 | C[S@+]([O-])c1cccc2c3c(n(Cc4ccc(Cl)cc4)c12)[C@@H](CC(=O)O)CCC3 [Compound I, 2-[(1R)-9-(4-chlorobenzyl)-8-((S)-methylsulfinyl)-2,3,4,9-tetrahydro-1H-carbazol-1-yl]acetic acid] | no significant effect | 
2 | COc1ccc(CN(CCN(C)C)c2ccccn2)cc1 [mepyramine] |  | no significant effect
